{"source": "patent US4853221A", "about": "“Method for treating non-small cell lung cancer, head and neck cancers and breast cancer” (Warner-Lambert Company, priority 1987, dated 1989)", "key": {"[1]": {"test_system": "breast cancer", "experiment": "Phase II trial, breast cancer", "type": "in vivo, human", "experimental": "The efficacy and safety of trimetrexate in the treatment of patients with breast cancer was evaluated in an 10-center Phase II study. Twenty-eight patients participated in the multicenter study, with a group of 20 patients considered evaluable. […] All patients had metastatic disease and the principal sites of metastasis included lung, bone, and liver.\nPatients were initially treated intravenously with 8 mg/m^2 /day of trimetrexate on Days 1 through 5 of a 21-day treatment cycle. Patients were evaluated after each treatment course and were withdrawn from the study if progressive disease was documented. Patients were eligible to received six courses of treatment if stable disease was documented; treatment beyond six courses was left to the discretion of the physician. The dose of trimetrexate was adjusted for each patient prior to each subsequent course of treatment based upon the patient reaction to the drug in the preceding course of treatment, and ranged from 8 mg/m^2 /day to about […]. A total of 91 courses of treatment were administered to the patients in the study."}, "[2]": {"test_system": "Lung tumor", "experiment": "Human tumor cloning system, lung tumors", "type": "cell-based", "details": "one hour, 8 specimens", "from_the_text": "The activity of trimetrexate was compared with that of methotrexate in tests with a human tumor cloning system (Latham, et al., Proc. Am. Assoc. Cancer Res., 24: 278 (1983)). The data from these tests appear in Table III were the activities are expressed as the numbers of tumors with 50% or greater reduction in tumor colony forming units after one hour exposure to the drug."}, "[3]": {"test_system": "Walker-256", "experiment": "Inhibition of Walker-256 cell growth in vitro", "type": "cell-based", "details": "Mus musculus, 48 h; Murine Walker-256; read-out: ED50 (the source's name)", "experimental": "Two leukemia cell lines (L1210 and L5178Y) and two solid tumor cell lines (Sarcoma 180 and Walker 256) were used in these studies.\n(§1) Logarithmically growing L1210 cells (approximately 3×10^5 cells/ml) were diluted with Fischer's medium (containing 10% horse serum) to an approximate concentration of 5×10^4 cells/ml. Cells were planted in duplicate into 15 ml culture tubes containing either no drug or various amounts of drug, and incubated for 48 hours at 37° C. before being counted.\n(§2) Trimetrexate was also evaluated in a similar manner side-by-side with methotrexate for its effect on the growth of three additional murine cell lines (L5178Y, Sarcoma-180, and Walkler-256) and three human cell lines (acute myelogenous leukemia K-562, T-cell 8402, and B-cell 8392), propagated in vitro."}, "[4]": {"test_system": "L1210", "experiment": "Antitumor activity against L1210 leukemia in mice", "type": "in vivo, mouse", "details": "for Life Span % ILS / Life Span % T/C: ip daily, Days 1-9", "experimental": "The growth inhibition properties of 5-methyl-6-[[(3,4,5-trimethoxyphenyl)amino]methyl]-2,4-quinazolinediamine (trimetrexate) against several transplanted murine tumors were evaluated employing the antitumor screening program of the Drug Evaluation Branch of the National Cancer Institute. The protocols for these tests is described in Cancer Chemotherapy Reports, 3: 1-103 (1972). The dosing schedules are results from these tests appear in Table IV.\nIn the L1210, P388, and B-16 melanoma models, results are expressed as a percentage of median control survival time. Percentage of increase in survival time and/or cures (30 day survivors) were the parameters used to measure the effectiveness of the agents. An initial median survival value for treated over control percentage (% T/C) equal to or greater than 125% was considered indicative of activity. For confirmatory activity, two multidose assays must show % T/C values equal to or greater than 150%.\n(§3) Percent increase in median life span (% ILS) values appearing in the tables were calculated from the formula; 100×(median life span in days of treated mice minus median life span in days of untreated mice) divided by median life span in days of untreated control mice. That is, % ILS=[100×(T-C)]/C. % T/C and %ILS are directly interconvertible by the formula % ILS=% T/C -100.\n(§4) L1210 Leukemic Cells (10^5 /mouse) and P388 leukemic cells (10^6 /mouse)were in the ascites form and were transferred to BD2F1 or CD2F1 mice by intraperitoneal (ip) injection of 0.1 ml of cells taken from animals bearing 6- to 7-day old tumors. Leukemic cells were injected ip one day prior to the start of treatment.\nIn all of the mouse tumor studies described above, routine controls consisted of matching ten normal mice (with no tumors) to each tumor-bearing treatment group and injecting them with the same drug at the same dosages, schedules, days of administration, and drug route as the tumor-bearing mice. In this way, drug-induced toxicity (lethality and weight loss) could be clearly separated from the effects of the drug on the tumors."}, "[5]": {"test_system": "T-Cell 8402", "experiment": "Inhibition of T-Cell 8402 growth in vitro", "type": "cell-based, human", "details": "48 h; Human T-Cell 8402; read-out: ED50 (the source's name)", "experimental": "as §1, §2"}, "[6]": {"test_system": "cells in culture", "experiment": "Concentration reached in cells in culture", "type": "cell-based", "details": "compared with methotrexate"}, "[7]": {"test_system": "P388 murine leukemia", "experiment": "Schedule dependence against P388 murine leukemia", "type": "in vivo, mouse", "experimental": "In the L1210, P388, and B-16 melanoma models, results are expressed as a percentage of median control survival time. Percentage of increase in survival time and/or cures (30 day survivors) were the parameters used to measure the effectiveness of the agents.\nas §3, §4\nThe dose schedule dependence of trimetrexate was tested against transplanted P388 leukemia using the protocol outlined above."}, "[8]": {"details": "optimal dose 20 mg/kg (dose range 80-5)"}, "[9]": {"details": "optimal dose 80 mg/kg (dose range 80-5)"}, "[10]": {"details": "13 mg/kg, every 3 hours, daily, Days 1, 5, and 9"}, "[11]": {"details": "20 mg/kg, every 3 hours, daily, Days 1, 5, and 9"}, "[12]": {"details": "30 mg/kg, every 3 hours, daily, Days 1, 5, and 9"}, "[13]": {"details": "45 mg/kg, every 3 hours, daily, Days 1, 5, and 9"}}}
{"smiles": "COc1cc(NCc2ccc3nc(N)nc(N)c3c2C)cc(OC)c1OC", "note": "[Trimetrexate, 5-methyl-6-[[(3,4,5-trimethoxyphenyl)amino]methyl]-2,4-quinazolinediamine]", "values": [{"measurement": "patients with stable disease", "setting": "[1]; 20 evaluable patients", "value": 10, "unit": "patients"}, {"measurement": "patients with partial response", "setting": "[1]; 20 evaluable patients, initial 8 mg/m^2/day iv Days 1-5 of 21-day cycle", "value": 3, "unit": "patients"}, {"measurement": "partial response rate", "setting": "[1]; p5% confidence interval 0-30.6%, 20 evaluable patients", "value": 15, "unit": "%"}, {"measurement": "median duration of partial response", "setting": "[1]; range 6.4-18.7+ weeks", "value": 13.1, "unit": "weeks"}, {"measurement": "Number of Tumors with 50% or Greater Decrease in Tumor Colony Forming Units", "setting": "[2]; trimetrexate 0.1 μg/ml", "value": 1}, {"measurement": "Number of Tumors with 50% or Greater Decrease in Tumor Colony Forming Units", "setting": "[2]; trimetrexate 1.0 μg/ml", "value": 1}, {"measurement": "IC50", "setting": "[3]", "value": 5, "unit": "nM"}, {"measurement": "antitumor activity", "setting": "[4]; mouse, in vivo", "value": "good activity"}, {"measurement": "Life Span % ILS", "setting": "[4]; [8]", "value": 72, "unit": "%"}, {"measurement": "Life Span % T/C", "setting": "[4]; [8]", "value": 172, "unit": "%"}, {"measurement": "Life Span % ILS", "setting": "[4]; [9]", "value": 96, "unit": "%"}, {"measurement": "Life Span % T/C", "setting": "[4]; [9]", "value": 196, "unit": "%"}, {"measurement": "IC50", "setting": "[5]", "value": 10, "unit": "nM"}, {"measurement": "concentration reached in cells in culture", "setting": "[6]", "value": "higher concentration than methotrexate"}, {"measurement": "% T/C", "setting": "[7]; [10]", "value": 185, "unit": "%"}, {"measurement": "Weight Change", "setting": "[7]; [10]", "value": 1.0, "unit": "Grams"}, {"measurement": "% T/C", "setting": "[7]; [11]", "value": 194, "unit": "%"}, {"measurement": "Weight Change", "setting": "[7]; [11]", "value": -0.2, "unit": "Grams"}, {"measurement": "% T/C", "setting": "[7]; 22 mg/kg, Days 1 and 9", "value": 164, "unit": "%"}, {"measurement": "Weight Change", "setting": "[7]; 22 mg/kg, Days 1 and 9", "value": 1.8, "unit": "Grams"}, {"measurement": "% T/C", "setting": "[7]; [12]", "value": 203, "unit": "%"}, {"measurement": "Weight Change", "setting": "[7]; [12]", "value": 0.6, "unit": "Grams"}, {"measurement": "% T/C", "setting": "[7]; 33 mg/kg, Days 1 and 9", "value": 169, "unit": "%"}, {"measurement": "Weight Change", "setting": "[7]; 33 mg/kg, Days 1 and 9", "value": 0.8, "unit": "Grams"}, {"measurement": "% T/C", "setting": "[7]; [13]", "value": 212, "unit": "%"}, {"measurement": "Weight Change", "setting": "[7]; [13]", "value": -1.7, "unit": "Grams"}, {"measurement": "% T/C", "setting": "[7]; 50 mg/kg, Days 1 and 9", "value": 166, "unit": "%"}, {"measurement": "Weight Change", "setting": "[7]; 50 mg/kg, Days 1 and 9", "value": 0.3, "unit": "Grams"}, {"measurement": "% T/C", "setting": "[7]; 53 mg/kg, Day 1 only", "value": 100, "unit": "%"}, {"measurement": "% T/C", "setting": "[7]; 53 mg/kg, Days 1, 5, and 9", "value": 116, "unit": "%"}, {"measurement": "Weight Change", "setting": "[7]; 53 mg/kg, Days 1, 5, and 9", "value": 2.9, "unit": "Grams"}, {"measurement": "% T/C", "setting": "[7]; 75 mg/kg, Days 1 and 9", "value": 181, "unit": "%"}, {"measurement": "Weight Change", "setting": "[7]; 75 mg/kg, Days 1 and 9", "value": -2.6, "unit": "Grams"}, {"measurement": "% T/C", "setting": "[7]; 80 mg/kg, Day 1 only", "value": 104, "unit": "%"}, {"measurement": "% T/C", "setting": "[7]; 80 mg/kg, Days 1, 5, and 9", "value": 119, "unit": "%"}, {"measurement": "Weight Change", "setting": "[7]; 80 mg/kg, Days 1, 5, and 9", "value": 1.3, "unit": "Grams"}, {"measurement": "% T/C", "setting": "[7]; 120 mg/kg, Day 1 only", "value": 113, "unit": "%"}, {"measurement": "% T/C", "setting": "[7]; 120 mg/kg, Days 1, 5, and 9", "value": 154, "unit": "%"}, {"measurement": "Weight Change", "setting": "[7]; 120 mg/kg, Days 1, 5, and 9", "value": -2.5, "unit": "Grams"}, {"measurement": "% T/C", "setting": "[7]; 180 mg/kg, Day 1 only", "value": 12, "unit": "%"}, {"measurement": "% T/C", "setting": "[7]; 180 mg/kg, Days 1, 5, and 9", "value": 9, "unit": "%"}, {"measurement": "optimal dose regimen", "setting": "[7]; every three hours on Days 1, 5, and 9, minimal weight loss and maximum life span response", "value": "about 30 mg/kg/injection"}]}
